From ChEMBL document CHEMBL1201862, “PubChem BioAssay data set” (2004)
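Cells were grown in 96-well plates and exposed to each compound for 48 hours at five concentrations; endpoints were interpolated linearly between bracketing concentrations, or set to the highest concentration if not reached. Abbreviation: GI50, concentration required for 50% inhibition of growth.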 Calls of active or inactive are those of the source. Cut-off read from the data, not from the text of the source: active = GI50 up to about 1.1 µM and inactive = higher.

Assays:
Experiment in all cases: NCI anticancer screen, dose series, 48 h
LXFL 529 = test system: LXFL 529
SNB-78 = test system: SNB-78
DMS-114 = test system: DMS-114
DLD-1 = test system: DLD-1
XF498 = test system: XF498
KM-20L2 = test system: KM-20L2
HOP-18 = test system: HOP-18
DMS-273 = test system: DMS-273
RXF 631 = test system: RXF 631

Measured: GI50

CC1=NN(C(=O)c2ccc(Cl)cc2)C(=O)/C1=C/c1ccco1
inactive: LXFL 529 > 100 µM | SNB-78 46.1 µM | DMS-114 > 100 µM | DLD-1 > 100 µM | XF498 > 100 µM | KM-20L2 > 100 µM

Cc1ccc(NC(=O)C2C(=O)C(=O)N(c3ccc(C)cc3)C2=O)cc1 (centres undefined)
inactive: HOP-18 > 100 µM | LXFL 529 > 100 µM | SNB-78 > 100 µM | DMS-114 > 100 µM | DLD-1 > 100 µM | KM-20L2 > 100 µM

CN1CCS(=O)(=O)NC(Cc2ccccc2)C(=O)N2CCCC2C1=O (centres undefined)
inactive: HOP-18 > 100 µM | DMS-273 > 100 µM | LXFL 529 > 100 µM | SNB-78 > 100 µM | DMS-114 > 100 µM | DLD-1 > 100 µM | XF498 > 100 µM | KM-20L2 > 100 µM

CCOP(=O)(OCC)OC1C=CC2CCC1C2 (centres undefined)
inactive: RXF 631 > 100 µM | HOP-18 > 100 µM | DMS-273 18.6 µM | LXFL 529 > 100 µM | SNB-78 > 100 µM | DMS-114 87.9 µM | DLD-1 > 100 µM | XF498 > 100 µM | KM-20L2 > 100 µM

O=C(Nc1ccc(Cl)c(Cl)c1)C(=O)C(C(=O)c1ccccc1-c1ccccc1)C1OC(=O)c2ccccc21 (centres undefined)
inactive: RXF 631 14.3 µM | LXFL 529 8.81 µM | SNB-78 10.4 µM | DMS-114 12.1 µM | DLD-1 14.8 µM | XF498 12.8 µM | KM-20L2 22.9 µM

Nc1nc(Cl)cc(NCCCCCCNc2cc(Cl)nc(N)n2)n1
inactive: RXF 631 > 100 µM | HOP-18 > 100 µM | DMS-273 > 100 µM | LXFL 529 32.7 µM | DLD-1 > 100 µM | XF498 30.6 µM | KM-20L2 > 100 µM

CCN(CC)c1ccc(C(=O)c2ccccc2C(=O)O)c(O)c1
inactive: DMS-273 > 100 µM | LXFL 529 > 100 µM | SNB-78 > 100 µM | DMS-114 > 100 µM | XF498 > 100 µM

CC1=C(C(=O)Nc2ccc(Cl)c(C(=O)OC(C)C)c2)SCCO1
inactive: HOP-18 81.3 µM | DMS-273 55.6 µM | SNB-78 99.5 µM | DLD-1 74 µM | XF498 62.4 µM | KM-20L2 33.9 µM

COc1cc(CCc2ccc(OC(C)=O)cc2)cc(OC)c1OC
inactive: HOP-18 > 100 µM | DMS-273 > 100 µM | LXFL 529 > 100 µM | SNB-78 > 100 µM | DMS-114 55 µM | DLD-1 > 100 µM | KM-20L2 > 100 µM

C/C=C/C1(C)/C(=N\O)C(C)(CCC)C(=O)N1O (centres undefined)
inactive: DMS-273 > 100 µM | LXFL 529 > 100 µM | SNB-78 > 100 µM | DMS-114 > 100 µM | DLD-1 > 100 µM | XF498 > 100 µM | KM-20L2 > 100 µM

Cc1cc2c(c3c1c1ccccc1n3C)C(=O)c1ccccc1C2=O
inactive: RXF 631 > 100 µM | DMS-273 > 100 µM | LXFL 529 > 100 µM | SNB-78 > 100 µM | DMS-114 > 100 µM | DLD-1 > 100 µM | XF498 60.1 µM | KM-20L2 > 100 µM

O=C1[C@@H]2C(c3ccc(Cl)cc3Cl)=NO[C@@H]2C(=O)N1c1ccc(Cc2ccc(N3C(=O)[C@H]4C(c5ccc(Cl)cc5Cl)=NO[C@H]4C3=O)cc2)cc1
inactive: HOP-18 > 100 µM | DMS-273 > 100 µM | LXFL 529 15.6 µM | SNB-78 46.8 µM | DMS-114 39.5 µM | DLD-1 > 100 µM | XF498 > 100 µM | KM-20L2 > 100 µM

Oc1cc(-c2ccccc2)nc2cc3c(cc12)OCO3
inactive: RXF 631 2.9 µM | HOP-18 > 100 µM | DMS-273 11.7 µM | LXFL 529 1.82 µM | SNB-78 3.72 µM | DLD-1 6.56 µM | XF498 26.9 µM | KM-20L2 7.35 µM

O=C1C=CC(=CC=C2C=CN(CCCCCCCCCCC(=O)NCCCCCCCCCCCC(=O)O)C=C2)C=C1
inactive: RXF 631 > 100 µM | DMS-273 > 100 µM | LXFL 529 > 100 µM | SNB-78 > 100 µM | DMS-114 > 100 µM | DLD-1 > 100 µM | XF498 > 100 µM | KM-20L2 > 100 µM

O=C(OC(=O)n1ccc2ccccc21)n1ccc2ccccc21
inactive: HOP-18 > 100 µM | DMS-273 > 100 µM | SNB-78 > 100 µM | DMS-114 > 100 µM | DLD-1 > 100 µM | XF498 > 100 µM | KM-20L2 > 100 µM

CCCNCCCC(NC(C)=O)C(=O)NCc1ccccc1 (centres undefined)
inactive: RXF 631 > 100 µM | DMS-273 > 100 µM | LXFL 529 > 100 µM | SNB-78 > 100 µM | DMS-114 > 100 µM | DLD-1 > 100 µM | XF498 > 100 µM | KM-20L2 > 100 µM

Cc1cc(NS(=O)(=O)c2ccc(NC(=O)c3cccc4c(Nc5ccc(S(=O)(=O)Nc6cc(C)on6)cc5)c5ccccc5nc34)cc2)no1
inactive: HOP-18 19.4 µM | DMS-273 > 100 µM | LXFL 529 24.7 µM | SNB-78 35.1 µM | DMS-114 35.2 µM | DLD-1 > 100 µM | XF498 42.3 µM | KM-20L2 > 100 µM

CCCCOC(=O)CNC(=O)OCCCCC#CC#CCCCCOC(=O)NCC(=O)OCCCC
inactive: HOP-18 69.8 µM | DMS-273 > 100 µM | LXFL 529 > 100 µM | SNB-78 > 100 µM | DMS-114 > 100 µM | DLD-1 > 100 µM | XF498 > 100 µM | KM-20L2 > 100 µM

CCOc1ccccc1NC(=O)CCC(=O)OC
inactive: HOP-18 > 100 µM | DMS-273 > 100 µM | LXFL 529 > 100 µM | SNB-78 > 100 µM | DMS-114 > 61.1 µM | DLD-1 > 83 µM | XF498 > 100 µM | KM-20L2 > 100 µM

CCCCCCCCCCCCCS(=O)(=O)O
inactive: RXF 631 > 100 µM | HOP-18 3.08 µM | LXFL 529 > 100 µM | SNB-78 > 100 µM | DMS-114 > 100 µM | DLD-1 > 100 µM | XF498 > 100 µM | KM-20L2 > 100 µM

C#Cc1cc(CN(CC(=O)OC(C)(C)C)CC(=O)OC(C)(C)C)nc(CN(CC(=O)OC(C)(C)C)CC(=O)OC(C)(C)C)c1
inactive: RXF 631 11.9 µM | DMS-273 5.89 µM | LXFL 529 3.46 µM | SNB-78 6.14 µM | DMS-114 3.26 µM | XF498 11.6 µM | KM-20L2 5.43 µM

NC(=O)N/N=C1/CCCC/C1=C\c1ccccc1
inactive: RXF 631 > 100 µM | HOP-18 > 100 µM | DMS-273 > 100 µM | LXFL 529 > 100 µM | SNB-78 > 100 µM | DMS-114 > 100 µM | DLD-1 > 100 µM | KM-20L2 > 100 µM

COc1ccccc1/C=C1\CCC(CCN2CCOCC2)C1=O (centres undefined)
inactive: RXF 631 92.7 µM | HOP-18 > 100 µM | DMS-273 > 100 µM | LXFL 529 > 100 µM | SNB-78 > 100 µM | DMS-114 42 µM | DLD-1 > 100 µM | XF498 > 100 µM | KM-20L2 75 µM

N#C/C(=C\c1ccccc1)C(NO)Nc1ccccc1 (centres undefined)
inactive: HOP-18 > 100 µM | DMS-273 > 100 µM | LXFL 529 60.3 µM | SNB-78 83.2 µM | DLD-1 > 100 µM | KM-20L2 > 100 µM

O=C(CC(=O)C1CCOC1=O)C(=O)Nc1ccc(Cl)cc1Cl (centres undefined)
inactive: DMS-273 > 100 µM | LXFL 529 > 100 µM | SNB-78 > 100 µM | DMS-114 > 100 µM | DLD-1 > 100 µM | XF498 > 100 µM | KM-20L2 > 100 µM
